Test results reported in paper PMC4472571 (Journal of neurochemistry, 2015).

Experiments:
Assay in all cases: two-electrode voltage clamp, CFTR current in oocytes
Assay type in all cases: cell-based
rhoMOR263-2 = molecular target: T1, rhoMOR263-2 (Mus musculus, UniProt Q9EPG4); conditions: agonist; 30 μM
T1 sequence (Q9EPG4 1-317): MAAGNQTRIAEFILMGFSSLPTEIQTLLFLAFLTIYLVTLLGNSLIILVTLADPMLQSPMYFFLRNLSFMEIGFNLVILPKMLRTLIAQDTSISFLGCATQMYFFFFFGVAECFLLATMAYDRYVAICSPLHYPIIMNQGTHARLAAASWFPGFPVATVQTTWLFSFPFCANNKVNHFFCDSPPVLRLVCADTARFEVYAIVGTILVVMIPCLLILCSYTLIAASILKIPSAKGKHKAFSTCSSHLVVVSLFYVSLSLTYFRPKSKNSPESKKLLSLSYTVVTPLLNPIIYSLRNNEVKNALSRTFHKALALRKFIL

MOR263-3 [1] = molecular target: T2, MOR263-3 (Mus musculus, UniProt Q8VFQ2); conditions: agonist; 30 μM
T2 sequence (Q8VFQ2 1-330): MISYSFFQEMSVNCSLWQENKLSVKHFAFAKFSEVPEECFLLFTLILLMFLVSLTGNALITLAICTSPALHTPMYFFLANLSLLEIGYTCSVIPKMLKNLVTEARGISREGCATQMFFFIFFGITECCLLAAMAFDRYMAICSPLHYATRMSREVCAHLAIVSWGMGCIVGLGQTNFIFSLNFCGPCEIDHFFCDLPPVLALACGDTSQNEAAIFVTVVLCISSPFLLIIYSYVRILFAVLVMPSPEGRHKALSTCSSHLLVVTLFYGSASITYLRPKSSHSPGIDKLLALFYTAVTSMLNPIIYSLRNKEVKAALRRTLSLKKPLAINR

MOR263-3 [2] = molecular target: T2, MOR263-3

Row | SMILES | two-electrode voltage clamp, CFTR current in oocytes (rhoMOR263-2) | two-electrode voltage clamp, CFTR current in oocytes (MOR263-3 [1]) | EC50 (MOR263-3 [2]) [µM]
1 | CCCCCCC/C=C/C=O [trans-2-decenal] | MOR263-2 responded well to trans,trans-2,4-decadienal, trans,trans-2,4-undecadienal, trans-2-decenal |  | 
2 | CCCCC/C=C/C=C/C=O [trans,trans-2,4-decadienal] | MOR263-2 responded well to trans,trans-2,4-decadienal | MOR263-3 responded well to trans,trans-2,4-nonadienal, trans,trans-2,4-decadienal | 
3 | CCCCCC/C=C/C=C/C=O [trans,trans-2,4-undecadienal] | MOR263-2 responded well to trans,trans-2,4-decadienal, trans,trans-2,4-undecadienal |  | 
4 | CCCC/C=C/C=C/C=O [trans,trans-2,4-nonadienal] |  | MOR263-3 responded well to trans,trans-2,4-nonadienal, trans,trans-2,4-decadienal | 
5 | CCC/C=C/C=C/C=O [trans,trans-2,4-octadienal] |  |  | 21 ± 6
6 | CCCCC/C=C/C=O [trans-2-octenal] |  | MOR263-3 responded well to trans,trans-2,4-nonadienal, trans,trans-2,4-decadienal, trans-2-octenal | 
